Source: patent US9408891B2, “Methods of using gelsolin to treat or prevent bacterial sepsis” (priority 2003, dated 2016)
Entries after “also recorded” stand apart in the source; their conditions may differ.

Legend:
[1] = target: T1, gelsolin (Homo sapiens, UniProt P06396); assay: Actin severing activity of gelsolin (50 nM) with LTA or lysolipids; type: biochemical
Protocol: The tested gelsolin concentration was 50 nM; LTA ranged from 0-50 μM; Pyrene-F-actin was 0.3 μM. Recording changes in fluorescently-labeled (rhodamine B-labeled) gelsolin peptide PBP10 (10 μM), indicates a specific interaction between gelsolin and LTA.

[2] = test system: actin-binding proteins; details: Yamamura et al., FEBS Lett. 1996; cited from earlier work
[3] = target: T1, gelsolin; details: Goetzl et al. 2000; cited from earlier work
[4] = test system: binding of LPS-binding protein (LBP) to LPS; assay: Competition of gelsolin with 125I-LBP for LPS-coated wells (solid phase); details: nanomolar concentrations of gelsolin
Protocol: To determine competition between gelsolin and LPS-binding proteins (LPB), a high affinity carrier for LPS, the LPS-coated wells (1 nmole/per well of LPS Re-595 from Salmonella minnesota) were saturated by incubation (2 hours, 20° C.) with […] 2 mg/ml in RPMI), washed and preincubated with different amount of recombinant human gelsolin (0-2 ng/well) in […] (0.5 mg/ml) containing RPMI. RPMI medium refers to Roswell Park Memorial Institute medium, typically used to culture human lymphoid cells. Then, 10 μl of ^125I-LPB (6×10^4 cpm) were added, and the plates were incubated for 90 minutes at 37° C., then washed six times with RPMI. After that, the bound radioactivity was measured.

[5] = test system: LPS-binding protein (LBP); assay: Binding of 125I-LBP to gelsolin-coated wells
Protocol: To determine competition between gelsolin and LPS-binding proteins (LPB), a high affinity carrier for LPS, […]), washed and preincubated with different amount of recombinant human gelsolin (0-2 ng/well) in […] (0.5 mg/ml) containing RPMI. RPMI medium refers to Roswell Park Memorial Institute medium, typically used to culture human lymphoid cells. Then, 10 μl of ^125I-LPB (6×10^4 cpm) were added, and the plates were incubated for 90 minutes at 37° C., then washed six times with RPMI. After that, the bound radioactivity was measured.

[6] = test system: human aortic endothelial cells (HAEC); assay: LPS-induced actin cytoskeleton disassembly, phalloidin staining, endothelial cells; type: cell-based; details: 2 μM (10 μg/ml) LPS preincubated with 1.8 μM (0.16 mg/ml) gelsolin, 10 min, listed as plasma gelsolin
Description: (§1) In light of the findings in the previous Examples, and using the materials prepared in above, the effect of the gelsolin binding by LPS was studied to determine the effect on cellular responses in vitro. Cell cultures of human aortic endothelial cells (HAEC) and rat primary astrocytes were used to evaluate the effect of LPS on actin. Both of these cell types have mCD14 (membrane bound C14) and TLR LPS receptors (Faure, et al., J. Biol. Chem. 275:11058-11063 (2000); Bsibsi, et al., J. Neuropathol. Exp. Neurol. 61:1013-1021 (2002); Bowman, et al., Glia 43:281-291 (2003)).
HAECs (primary human aortic endothelial cells) (ATCC, Rockville, Md. or Clonetics, San Diego, Calif.), will grow to confluence through passages 5-9 in endothelial cell growth medium supplemented with 2% fetal bovine serum, 10 μg/liter human recombinant epidermal growth factor, 1 mg/liter hydrocortisone, 50 μg/ml gentamicin, 50 ng/ml amphotericin-B, in a 37° C. humidified atmosphere of 95% air:5% C02.
(§2) HAECs and astrocytes cultures were incubated for 10 minutes in medium containing 10 μg/ml LPS alone, or LPS that had been pre-incubated with 0.16 mg/ml of human gelsolin. […] Location of transcription factor nuclear factor-kappaB (NF-κB) was observed using a monoclonal antibody to NF-κB (Molecular Probes), and cell nuclei were detected by counter-staining with 4′, 6-diamidino-2-phenylindole dihydrochloride (DAPI) (Sigma).

[7] = test system: rat primary astrocytes; assay: LPS-induced actin cytoskeleton disassembly, phalloidin staining, astrocytes; type: cell-based; details: 2 μM (10 μg/ml) LPS preincubated with 1.8 μM (0.16 mg/ml) gelsolin, 10 min, listed as plasma gelsolin
Description: as §1
Rat primary astrocytes were obtained from prenatal rats and maintained for 14 days in culture before use. Embryos (E17-E19) were removed by caesarian section from a Sprague-Dawley rat and the hippocampi were surgically removed. The tissue was digested in trypsin/DNAse at 37° C., centrifuged (1000×5 min) and filtered to derive suspensions from each pup. […]
as §2

[8] = test system: NF-κB translocation in rat primary astrocytes; assay: NF-κB translocation to the nucleus in astrocytes; type: cell-based; details: LPS preincubated with 1.8 μM gelsolin, 2 hour incubation
Protocol: Rat primary astrocytes were obtained from prenatal rats and maintained for 14 days in culture before use. Embryos (E17-E19) were removed by caesarian section from a Sprague-Dawley rat and the hippocampi were surgically removed. The tissue was digested in trypsin/DNAse at 37° C., centrifuged (1000×5 min) and filtered to derive suspensions from each pup. Cells were grown in an incubator at 37° C. and 5% CO2 in DMEM (Dulbecco's Modified Eagle's Medium; BioWhittaker/Cambrex BioScience, East Rutherford, N.J.), supplemented with Ham's F12 (Sigma-Aldrich, St. Louis, Mo.) and 5% fetal bovine serum (FBS) (Hyclone, Logan, Utah) for 7 days, followed by an additional 7 days in Neurobasal medium (Gibco, Grand Island, N.Y.) also supplemented with 5% FBS, 2 mM l-glutamine, 50 μg/ml streptomycin and 50 U/ml penicillin. In each experiment, the medium was changed to serum-free at 6-12 hours prior to addition of LPS, TNF-α, or gelsolin.
HAECs and astrocytes cultures were incubated for 10 minutes in medium containing 10 μg/ml LPS alone, or LPS that had been pre-incubated with 0.16 mg/ml of human gelsolin. Cultures were fixed with ice-cold methanol and immunostained for F-actin with fluorescein isothiocyanate (FITC)-labeled phalloidin (Molecular Probes, Eugene, Oreg.). In astrocyte cultures, NF-κB translocation was manipulated by a 2 hour incubation in serum-free medium containing one of the following: 10 ng/ml TNF-α, 10 μg/ml LPS alone, or LPS that had been preincubated with 0.16 mg/ml human gelsolin. Location of transcription factor nuclear factor-kappaB (NF-κB) was observed using a monoclonal antibody to NF-κB (Molecular Probes), and cell nuclei were detected by counter-staining with 4′, 6-diamidino-2-phenylindole dihydrochloride (DAPI) (Sigma).

[9] = test system: endotoxemic C57BL/6 mice (25 mg/kg LPS E. coli 055:B5 i.p.); assay: Mortality study of mice challenged with lethal E. coli LPS and treated with GSN, BSA or saline; type: in vivo, mouse
Protocol: To study the effect on mortality, animals are injected i.p. with 25 mg/kg LPS (E. coli 055:B5, Sigma) and each mouse is randomly selected to receive one of the following three treatments: 1) GSN (containing: 8 mg of recombinant human plasma gelsolin (Biogen-IDEC, Inc) containing 1 mM Ca dissolved in 400 μl of 0.15 M NaCl (saline); or 2) BSA (containing: 8 mg of bovine albumin (Serologicals Proteins, Inc, Kankakee, Ill.) containing 1 mM Ca dissolved in 400 μl of saline, or 3) saline (containing only 400 μl saline). The GSN (gelsolin), BSA or saline solutions are administered subcutaneously at the dorsal surface of each animal immediately after LPS instillation, and then repeated at 24, 48, and 72 hours.
There are 9 mice in the saline group and 8 mice each in the GSN group and the BSA group. Animals are monitored frequently, and mortality is recorded and presented at an interval of days. Animal mortality study data are presented as Kaplan-Meier curves and log-rank test is used to analyze treatment impact on animal mortality. Ap-value less than 0.05 is considered significant.
To measure gelsolin in vivo, a nucleation assay for plasma gelsolin is performed as follows: the collected mouse plasma is diluted 1:5 in Buffer B (0.1 M KCI, 0.2 mM MgCl2, 1 mM EGTA (ethyleneglycol-bis(2-aminoethyl) N,N,N′,N′,-tetraacetic acid), 0.5 mM ATP, 0.5 mM β-mercaptoethanol, 10 mM Tris-HCl buffer, pH 7.4). From the diluted plasma sample, 5 μl is added to 280 μl Buffer B supplemented with 1.5 mm […] and 0.4 μM phallacidin in 6×50 mm borosilicate culture tubes. The actin polymerization reaction is initiated by adding 15 μl 20 μM pyrene-actin in Buffer A (0.5 mM ATP, 0.5 mM β-mercaptoethanol, 0.2 mM CaCl2 […] buffer, pH 7.4). Polymerization is monitored for 200 seconds in a spectrofluorimeter at excitation and emission wavelengths of 366 and 386 nm respectively. Gelsolin concentrations are estimated from a standard curve using recombinant human plasma gelsolin.

[10] = test system: human neutrophils / human aortic endothelial cells (HAEC); assay: Neutrophil adhesion to LTA-stimulated HAEC; type: cell-based; details: gelsolin 2 μM added along with LTA 10 μg/ml
Description: To investigate whether gelsolin can prevent gram-positive bacterial inflammation, the effect of LTA-mediated activation of human neutrophils was examined. Neutrophils were selected because their adhesion to human aorta endothelial cells (HAEC) is a hallmark of inflammation.
Neutrophils were isolated from human blood using the endotoxin-free Lympholyte-poly kit (Cedarlane, Ontario, Canada). The isolated neutrophil cells were resuspended in RPMI media. […] To quantify the adhesion, the neutrophils were labeled with calcein-AM (5 μM for 30 minutes at 37° C.).

[11] = target: T2, recombinant human gelsolin (rhGLS) (Homo sapiens, UniProt P06396); assay: Change of gelsolin OD at 280 nm after adding lipids; type: binding; details: OD 280 nm
T2 construct: purchased Biogen IDEC, Inc., Cambridge, Mass; host or cells: E. coli
T2 sequence (P06396 28-782): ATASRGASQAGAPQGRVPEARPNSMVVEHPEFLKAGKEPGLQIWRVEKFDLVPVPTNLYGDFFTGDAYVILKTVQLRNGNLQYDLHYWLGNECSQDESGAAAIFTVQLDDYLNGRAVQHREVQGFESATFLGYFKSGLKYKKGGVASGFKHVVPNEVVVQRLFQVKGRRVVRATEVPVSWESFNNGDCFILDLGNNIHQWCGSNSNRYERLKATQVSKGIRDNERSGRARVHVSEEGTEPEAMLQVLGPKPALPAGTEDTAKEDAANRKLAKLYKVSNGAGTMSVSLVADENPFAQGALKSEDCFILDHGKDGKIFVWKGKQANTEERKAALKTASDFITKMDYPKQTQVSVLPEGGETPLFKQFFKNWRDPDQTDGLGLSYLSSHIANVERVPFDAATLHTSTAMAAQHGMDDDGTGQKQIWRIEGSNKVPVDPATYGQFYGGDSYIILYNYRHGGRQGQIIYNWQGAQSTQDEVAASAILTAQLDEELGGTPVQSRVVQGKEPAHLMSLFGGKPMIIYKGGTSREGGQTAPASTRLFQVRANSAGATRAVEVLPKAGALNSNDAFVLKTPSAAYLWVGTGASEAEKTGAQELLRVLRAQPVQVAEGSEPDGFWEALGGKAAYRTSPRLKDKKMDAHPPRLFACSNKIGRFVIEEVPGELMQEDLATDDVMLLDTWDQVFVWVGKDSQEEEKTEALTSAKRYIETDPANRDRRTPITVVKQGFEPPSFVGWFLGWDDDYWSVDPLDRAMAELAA
Protocol: (§3) Therefore, to determine changes of gelsolin OD at 280 nm, different amounts of LPS, LPA and PS were added to recombinant human gelsolin (rhGLS) solutions and OD emission spectra were recorded using spectrophotometer Genesys 6 (Thermo-Spectronic, USA).

[12] = target: T3, pyrene-labeled SEQ ID No:1 (gelsolin residues 160-169) (Homo sapiens, UniProt P06396); assay: Pyrene excimer fluorescence of pyrene-labeled SEQ ID No:1 after adding lipids; type: binding; details: 2 μM pyrene peptide
T3 construct: made in house; host or cells: solid phase peptide synthesis
Protocol: as §3
Interaction of LPS and gelsolin was examined using rhodamine B- and pyrene-labeled SEQ ID No:1 (QRLFQVKGRR). The effect of LPS on gelsolin was determined in terms of the rhodamine-B fluorescent changes of PBP10 peptide in the presence of different lipids (FIG. 1C); and the fluorescence emission spectra of pyrene-labeled SEQ ID No:1 (2 μM) in the presence of LPS from Escherichia coli (1.2 μM), PIP2 (0.82 μM) and LPA (0.82 μM) (FIG. 1D) The results using the pyrene-derivatized gelsolin peptide confirmed the LPS induced clustering of the peptide with resulting excimer fluorescence of the pyrene group, which was evident as a large increase in fluorescence emission at 480 nm.

[13] = target: T2, recombinant human gelsolin (rhGLS); assay: Actin filament severing activity of purified gelsolin (pyrene F-actin depolymerization); type: biochemical; details: molar basis comparison
Protocol: To determine gelsolin's severing activity, rates of fluorescence decrease were evaluated during depolymerization. Monomeric G-actin was prepared from an acetone powder of rabbit skeletal muscle according to previously published methods (Spudich et al., J. Biol. Chem […]). The non-polymerizing solution contained 2 mM TRIS, 0.2 mM CaCl2, 0.5 mM ATP (adenosine triphosphate), 0.2 mM DTT (dithiothreitol) pH 7.4. Actin was polymerized by adding 150 mM KCl and 2 mM MgCl2 to the G-actin solutions and incubating for 1 hour at room temperature.
For F-actin severing assays, in general, a small volume (typically 5 μl) of the gelsolin composition is added to a similar volume of pyrene-labeled F-actin at a concentration adjusted to provide an actin:gelsolin ratio of approximately 10:1 (typically 1 μM gelsolin and 10 μM actin). This mixture is the diluted to 0.5 μM in a larger volume of F-actin buffer, and the filament severing efficiency is calculated from the initial slope of the fluorescence change. This reflects the rate of depolymerization that, in turn, is proportional to the number of cuts made by gelsolin. The LPS/gelsolin reaction can be done under any ionic condition, and the addition to F-actin requires the presence of […] Ca^2+ to activate the gelsolin. […] The actin nucleation reaction is similar except that in the latter case, the gelsolin/LPS mixture is added to a more dilute solution of G-actin (typically, 1 or 2 μM) in low ionic strength buffer followed immediately by addition of 150 mM KCI and 2 mM MgCl2 to initiate polymerization.
As shown, recombinant human gelsolin (rhGLS) (FIG. 4A) and blood serum (FIG. 4B) severing activity was measured in 0.4 μM pyrene-labeled F-actin samples (polymerized with 50% pyrene-labeled G-actin), after adding gelsolin (16 nM)/serum (2.5 μl), or their combination with one of the following: LPS (from different species), PIP2 (phosphatidyl-inositol-4,5-bisphosphate), LPA (lysophosphatidic acid), lipid A (the LPS derivative lacking polysaccharide) or PS (phosphatidylserine). The fluorescence intensity of F-pyrene actin was then monitored for 10 minutes, and the severing activity was calculated based on decreasing fluorescence. Severing activity was determined from a decrease in rate of fluorescence during depolymerization, and the depolymerization rate was calculated from the slope of the early decrease in fluorescence.

T1 sequence (P06396 28-782): as above

## CCCCCCCCCCCCC/C=C/[C@@H](O)[C@@H](N)COP(=O)(O)O [S1P, Sphingosine-1-phosphate]
[1]; above 1 μM
  inhibition of gelsolin at higher lipid concentrations: abrupt drop-off of activity
[1]; lipid below 1 μM
  inhibition of gelsolin by lysolipids: at least as strongly as lysophosphatidic acid (LPA); also recorded: also inhibit gelsolin; also recorded: as least as strongly as LPA does
[2]
  maximal dissociation: 10%
[3]
  binding of S1P by gelsolin: did not bind

## gelsolin
[4]
  inhibition of 125I-LBP binding to LPS coated wells: 69±6%
[5]
  direct binding of 125I-LBP to gelsolin-coated surfaces: did not bind to gelsolin-coated surfaces; also recorded: does not interact directly with the LBP; also recorded: does not bind to gelsolin-coated surfaces
[6]
  effect of gelsolin-preincubated LPS on actin cytoskeleton: no discernable effect on the actin cytoskeletons; also recorded: prevented LPS-induced actin cytoskeleton disassembly
[7]
  effect of gelsolin-preincubated LPS on actin cytoskeleton: no discernable effect on the actin cytoskeletons; also recorded: prevented LPS-induced actin cytoskeleton disassembly
[8]
  blocking of LPS-induced NF-κB translocation: completely blocked; also recorded: blocked LPS-induced translocation; also recorded: blocked by pre-incubation with gelsolin
[9]; 8 mg s.c. immediately after LPS and at 24, 48, 72 hours, listed as plasma gelsolin
  survival compared to saline or BSA controls: rescues the endotoxemic mice; also recorded: markedly improved survival
[9]; Day 7 / after 1 week
  condition of surviving mice: complete recovery
[9]; s.c. administration
  plasma gelsolin level restored in LPS-treated animals: 200 µg/mL
[10]
  effect on neutrophil adhesion to LTA-stimulated HAEC: inhibit neutrophil adhesion; also recorded: reduced to near baseline values; also recorded: prevents LTA activation of endothelial cells

## phosphatidylserine [PS]
[11]
  effect on absorbance of gelsolin: had no effect
[12]
  induction of pyrene excimer formation (emission 480 nm): had no effect
[13]
  inhibitory effect on severing activity of purified gelsolin: had no effect; also recorded: no inhibitory effect; also recorded: have no effect
